Measured values as given in patent publication US12404242B2, “Compositions and methods for making and using small molecules in the treatment of cancer” (Reglagene, Inc., priority 2021, dated 2025).
pEC50: −log10 of the molar value. ≈ marks a conversion by molar mass, not a printed value. Where two headings read alike, the source gives them in different places.

What was measured:
LNCaP cells = experiment: Cell viability (AlamarBlue), LNCaP prostate cancer cells; format: cell-based, human; conditions: 72 hours of treatment
How it was run: (§1)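 Cells were plated, and compounds were added at increasing concentrations after 24 h. Viability was measured by AlamarBlue fluorescence after 72 h of treatment and normalized to untreated controls to fit EC50.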

22RV1 cells = experiment: Cell viability (AlamarBlue), 22RV1 prostate cancer cells; format: cell-based, human; conditions: 72 hours of treatment
How it was run: as §1

U87 cells = experiment: Cell viability (AlamarBlue), U87 glioblastoma cells; format: cell-based, human; set-up: key to EC50 (μM) in U87 cells: Inactive: less than 50% inhibition at the highest concentration tested at 50 μM; conditions: 72 hours of treatment
How it was run: as §1

MCF7 cells = experiment: Cell viability (AlamarBlue), MCF7 breast cancer cells; format: cell-based; conditions: Homo sapiens, 72 hours of treatment
Protocol: (§2) In another exemplary method, half maximal effective concentration (EC50) was determined for some compounds and their isomers as disclosed herein in a variety of human cancer cell lines. In brief, cells from two prostate cancer cell lines (LNCaP, 22RV1), one glioblastoma cell line (U87), one breast cancer cell line (MCF7), a glioma cell line (LN18), a normal prostate cell line (RWPE1), and a glioblastoma cell line (T98G) were plated in a multi-well plate. After 24 hours, one of the compounds herein was added to the well at increasing concentrations. After 72 hours of treatment, cell viability was assessed using AlamrBlue® (Invitrogen) and fluorescence was read using the CLARIOstar Plus Multilabel Plate Reader (BMG Labtech). Samples were normalized to no treatment controls. EC50 values were determined using GraphPad Prism.

RWPE1 cells = experiment: Cell viability (AlamarBlue), RWPE1 normal prostate cells; format: cell-based, human; set-up: key to EC50 (μM) in RWPE1 cells: Inactive: less than 50% inhibition at the highest concentration tested at 50 μM; conditions: normal prostate cell line; for EC50 (μM) in RWPE1 cells: 72 hours of treatment
Protocol: as §2

[1] = Kinetic solubility in aqueous PBS buffer (HPLC-MS); format: physicochemical; conditions: kinetic from dmso stock
Protocol: In another exemplary method, central nervous system multiparameter optimization (CNS MPO) score and kinetic solubility of selected compounds was determined. CNS MPO score for compounds and their isomers disclosed herein were calculated using an algorithm that uses a weighted scoring function assessing 6 key physicochemical properties (clogP, clogD, MW, TPSA, HBD, and pKa) for blood-brain-barrier (BBB penetration). CNS MPO score ranged from 0 and 6.0 with scores≥4.0 used as a cut-off to select compounds that can have a high probability of accumulating in the CNS. Kinetic solubility of a compound is the maximum solubility of the fastest precipitating species of the compound. Kinetic solubility was determined by preparing a concentrated stock solution for compounds and their isomers disclosed herein in an organic solvent (DMSO), after which the solution was mixed with an aqueous PBS buffer and then filtered. Filtrate was tested to quantify the kinetic solubilty using HPLC-MS calibration curve. The CNS MPO Score and kinetic solubility of the compounds tested are provided in Table 7 where “ND” means not determined.

cancer cell = experiment: Cancer cell viability, cell line not stated (per-compound ranges in description); format: cell-based; conditions: 'In some embodiments', values worded 'about', read-out: EC50 in cancer cell viability (range stated in description)
Protocol: as §2

[2] = DMSO stock mixed with aqueous PBS buffer, filtered, read-out: Kinetic Solubility
[3] = 'In some embodiments', values worded 'about', read-out: kinetic solubility (range stated in description)

EC50 (LNCaP cells; Homo sapiens, LNCaP, 72 h) | EC50 (22RV1 cells; Homo sapiens, 22Rv1, 72 h) | EC50 (U87 cells; Homo sapiens, U-87 MG, 72 h) | EC50 (MCF7 cells) | solubility kinetic [1, 3] | pEC50 (cancer cell) | Compound | EC50 (μM) in RWPE1 cells (RWPE1 cells) | further results
27.5 µM | 26 µM | 36 µM | 24.3 µM | – | – | COC1CCC(C(=O)NC(=O)Nc2ccc(Oc3ncc(F)cn3)c(C)c2)CC1 (stereo not drawn) [Compound 8, 3-{4-[(5-fluoropyrimidin-2-yl)oxy]-3-methylphenyl}-1-(4-methoxycyclohexanecarbonyl)urea] | Inactive | –
2.9 µM | – | – | 12.7 µM | – | – | COC1CC(C(=O)NC(=O)Nc2ccc(Oc3ccc(C#N)cn3)c(C)c2)C1 (single isomer, unassigned) [Compound 16A, N-((4-((5-cyanopyridin-2-yl)oxy)-3-methylphenyl)carbamoyl)-3-methoxycyclobutane-1-carboxamide] | Inactive | EC50 (22RV1 cells): 5.8 µM; EC50 (U87 cells): 10 µM
2.8 µM | 2.9 µM | 4.4 µM | 2.4 µM | – | – | COC1CCC(C(=O)NC(=O)Nc2ccc(Oc3ccc(Cl)cn3)c(C)c2)CC1 (stereo not drawn) [Compound 7, N-((4-((5-chloropyridin-2-yl)oxy)-3-methylphenyl)carbamoyl)-4-methoxycyclohexane-1-carboxamide] | Inactive | solubility kinetic [1, 2]: 0.49 µM (≈ 0.205 µg/mL)
– | – | – | – | 13 to 17 µM (≈ 4.63 to 6.06 µg/mL) | 7.22 to 7.70 | COC1CC(C(=O)NC(=O)Nc2ccc(C)c(Oc3ncccn3)c2)C1 (stereo not drawn) [drawing 282, 3-methoxy-N-((4-methyl-3-(pyrimidin-2-yloxy)phenyl)carbamoyl)cyclobutane-1-carboxamide] | – | –
10.4 µM | 12.5 µM | – | 9.4 µM | – | – | Cc1cc(NC(=O)NC(=O)C2CCCCC2)ccc1Oc1ncc(Cl)cn1 [Compound 71, N-((4-((5-chloropyrimidin-2-yl)oxy)-3-methylphenyl)carbamoyl)cyclohexanecarboxamide] | Inactive | EC50 (μM) in U87 cells (U87 cells): Inactive
– | – | – | – | 10 to 14 µM (≈ 3.55 to 4.98 µg/mL) | 8.15 to 8.70 | COC1CC(C(=O)NC(=O)Nc2ccc(C)c(Oc3ccccn3)c2)C1 (stereo not drawn) [drawing 280, 3-methoxy-N-((4-methyl-3-(pyridin-2-yloxy)phenyl)carbamoyl)cyclobutane-1-carboxamide] | – | –
11.5 µM | 5.1 µM | 4.9 µM | 8.5 µM | – | – | COC1CCC(C(=O)NC(=O)Nc2ccc(Oc3ccc(F)cn3)c(C)c2)CC1 (stereo not drawn) [Compound 9, 3-{4-[(5-fluoropyridin-2-yl)oxy]-3-methylphenyl}-1-(4-methoxycyclohexanecarbonyl)urea] | Inactive | –
– | – | – | 11.5 µM | – | – | COC1CC(C(=O)NC(=O)Nc2ccc(Oc3ccc(F)cn3)c(C)c2)C1 (single isomer, unassigned) [Compound 15A, N-((4-((5-fluoropyridin-2-yl)oxy)-3-methylphenyl)carbamoyl)-3-methoxycyclobutanecarboxamide] | Inactive | EC50 (LNCaP cells): 1.6 µM; EC50 (22RV1 cells): 4.1 µM; EC50 (U87 cells): 5.5 µM
17.4 µM | 14.1 µM | – | 11.3 µM | – | – | COC1CCC(C(=O)NC(=O)Nc2ccc(Oc3ncccn3)c(F)c2)CC1 (stereo not drawn) [Compound 13, 3-[3-fluoro-4-(pyrimidin-2-yloxy)phenyl]-1-(4-methoxycyclohexanecarbonyl)urea] | – | –
– | – | – | 5.8 µM | – | – | COC1CC(C(=O)NC(=O)Nc2ccc(Oc3ncc(Cl)cn3)c(C)c2)C1 (single isomer, unassigned) [Compound 20A, N-((4-((5-chloropyrimidin-2-yl)oxy)-3-methylphenyl)carbamoyl)-3-methoxycyclobutane-1-carboxamide] | Inactive | EC50 (LNCaP cells): 0.87 µM; EC50 (22RV1 cells): 1.5 µM; EC50 (U87 cells): 2.6 µM
– | – | – | – | 7 to 11 µM (≈ 2.53 to 3.98 µg/mL) | 7.30 to 8.00 | COC1CC(C(=O)NC(=O)Nc2ccc(C)c(Oc3nccs3)c2)C1 (stereo not drawn) [drawing 279, 3-methoxy-N-((4-methyl-3-(thiazol-2-yloxy)phenyl)carbamoyl)cyclobutane-1-carboxamide] | – | –
3.1 µM | 1.9 µM | 1.9 µM | 1.9 µM | – | – | COC1CCC(C(=O)NC(=O)Nc2ccc(Oc3ccc(Cl)cn3)c(F)c2)CC1 (stereo not drawn) [Compound 12, N-((4-((5-chloropyridin-2-yl)oxy)-3-fluorophenyl)carbamoyl)-4-methoxycyclohexane-1-carboxamide] | – | EC50 (RWPE1 cells; Homo sapiens, RWPE-1, 72 hours of treatment): 6.1 µM; solubility kinetic [1, 2]: 0.28 µM (≈ 0.118 µg/mL)
– | – | – | – | 1.5 to 3.5 µM (≈ 0.56 to 1.31 µg/mL) | 7.10 to 7.40 | COC12CC(C(=O)NC(=O)Nc3ccc(Oc4nccs4)c(C)c3)(C1)C2 [drawing 270, 3-methoxy-N-((3-methyl-4-(thiazol-2-yloxy)phenyl)carbamoyl)bicyclo[1.1.1]pentane-1-carboxamide] | – | –
0.88 µM | 1.2 µM | 0.32 µM | 0.6 µM | – | – | COC1CC(C(=O)NC(=O)Nc2ccc(Oc3ncc(C)s3)c(C)c2)C1 (stereo not drawn) [Compound 60, 3-methoxy-N-((3-methyl-4-((5-methylthiazol-2-yl)oxy)phenyl)carbamoyl)cyclobutane-1-carboxamide] | – | –
6.3 µM | 17.8 µM | 22 µM | 2.5 µM | – | – | COC1CC(C(=O)NC(=O)Nc2ccc(Oc3cnc(N4CCOCC4)nc3)c(C)c2)C1 (stereo not drawn) [Compound 44, 3-methoxy-N-((3-methyl-4-((2-morpholinopyrimidin-5-yl)oxy)phenyl)carbamoyl)cyclobutane-1-carboxamide] | – | solubility kinetic [1, 2]: 0.95 µM (≈ 0.419 µg/mL)
13 µM | 12.5 µM | 33.5 µM | 12.9 µM | – | – | COC1CCC(C(=O)NC(=O)Nc2ccc(Oc3ncccn3)c(C)c2)CC1 (stereo not drawn) [Compound 10, 1-(4-methoxycyclohexanecarbonyl)-3-[3-methyl-4-(pyrimidin-2-yloxy)phenyl]urea] | Inactive | –
– | – | – | – | 4 to 8 µM (≈ 1.47 to 2.95 µg/mL) | 7.70 to 7.96 | COC12CC(C(=O)NC(=O)Nc3ccc(C)c(Oc4ncccn4)c3)(C1)C2 [drawing 283, 3-methoxy-N-((4-methyl-3-(pyrimidin-2-yloxy)phenyl)carbamoyl)bicyclo[1.1.1]pentane-1-carboxamide] | – | –
– | – | – | – | 1.5 to 3.5 µM (≈ 0.604 to 1.41 µg/mL) | 7.10 to 7.40 | COC12CC(C(=O)NC(=O)Nc3ccc(Oc4ncc(Cl)cn4)c(C)c3)(C1)C2 [drawing 272, N-((4-((5-chloropyrimidin-2-yl)oxy)-3-methylphenyl)carbamoyl)-3-methoxybicyclo[1.1.1]pentane-1-carboxamide] | – | –
2.4 µM | 3.7 µM | 6 µM | 3.4 µM | – | – | COC1CCC(C(=O)NC(=O)Nc2ccc(Oc3ncc(Cl)cn3)c(C)c2)CC1 (stereo not drawn) [Compound 1, N-((4-((5-chloropyrimidin-2-yl)oxy)-3-methylphenyl)carbamoyl)-4-methoxycyclohexane-1-carboxamide] | Inactive | solubility kinetic [1, 2]: 4.9 µM (≈ 2.05 µg/mL)
– | – | – | – | 1.5 to 3.5 µM (≈ 0.631 to 1.47 µg/mL) | 7.19 to 7.47 | COC12CC(C(=O)NC(=O)Nc3cc(C)c(Oc4ncc(Cl)cn4)c(F)c3)(C1)C2 [drawing 277, N-((4-((5-chloropyrimidin-2-yl)oxy)-3-fluoro-5-methylphenyl)carbamoyl)-3-methoxybicyclo[1.1.1]pentane-1-carboxamide] | – | –
19 µM | 41 µM | – | 20.9 µM | – | – | Cc1cc(NC(=O)NC(=O)C2COC2)ccc1Oc1ncc(Cl)cn1 [Compound 2, 1-{4-[(5-chloropyrimidin-2-yl)oxy]-3-methylphenyl}-3-(oxetane-3-carbonyl)urea] | – | –
– | – | – | – | 85 to 91 µM (≈ 32.8 to 35.2 µg/mL) | 5.40 to 6.30 | COC12CC(C(=O)NC(=O)Nc3ccc(Oc4ncc(F)cn4)c(C)c3)(C1)C2 [drawing 275, N-((4-((5-fluoropyrimidin-2-yl)oxy)-3-methylphenyl)carbamoyl)-3-methoxybicyclo[1.1.1]pentane-1-carboxamide] | – | –
